In ChEMBL document CHEMBL3045542, “A quantitative structure-activity relationship study of herbicidal analogues of alpha-hydroxy-substituted 3-benzylidenepyrrolidene-2,4-diones” (2006):

Tests used:
Type in all cases: functional
Echinochloa crus-galli [1] = assay: Herbicidal activity against Echinochloa crus-galli (barnyard grass) assessed as inhibition of plant growth at 10 ug/mL by cup test
Digitaria sanguinalis [2] = assay: Herbicidal activity against Digitaria sanguinalis (hairy crabgrass) assessed as inhibition of plant growth at 375 g/ha applied as pre-emergence treatment; settings: for inhibition at 375 g/ha: Digitaria sanguinalis, pre-emergence
Digitaria sanguinalis [3] = assay: Herbicidal activity against Digitaria sanguinalis (hairy crabgrass) assessed as inhibition of plant growth at 750 g/ha applied as pre-emergence treatment; settings: Digitaria sanguinalis, pre-emergence
Echinochloa crus-galli [4] = assay: Herbicidal activity against Echinochloa crus-galli (barnyard grass) assessed as inhibition of plant growth at 93.75 g/ha applied as pre-emergence treatment; settings: for inhibition at 93.75 g/ha: Echinochloa crus-galli, pre-emergence
Echinochloa crus-galli [5] = assay: Herbicidal activity against Echinochloa crus-galli (barnyard grass) assessed as inhibition of plant growth at 187.5 g/ha applied as pre-emergence treatment; settings: Echinochloa crus-galli, pre-emergence
Echinochloa crus-galli [6] = assay: Herbicidal activity against Echinochloa crus-galli (barnyard grass) assessed as inhibition of plant growth at 750 g/ha applied as pre-emergence treatment; settings: Echinochloa crus-galli, pre-emergence
Echinochloa crus-galli [7] = assay: Herbicidal activity against Echinochloa crus-galli (barnyard grass) assessed as inhibition of plant growth at 375 g/ha applied as pre-emergence treatment; settings: Echinochloa crus-galli, pre-emergence
Digitaria sanguinalis [8] = assay: Herbicidal activity against Digitaria sanguinalis (hairy crabgrass) assessed as inhibition of plant growth at 187.5 g/ha applied as pre-emergence treatment; settings: Digitaria sanguinalis, pre-emergence
Digitaria sanguinalis [9] = assay: Herbicidal activity against Digitaria sanguinalis (hairy crabgrass) assessed as inhibition of plant growth at 93.75 g/ha applied as pre-emergence treatment; settings: Digitaria sanguinalis, pre-emergence
[10] = tested as the Zn salt or complex

Row | Compound | inhibition at 10 µg/mL (Echinochloa crus-galli [1]) | other results
1 | COc1cc(OC(C)C)ccc1/C(O)=C1\C(=O)CN(C(C)C)C1=O | 57% | –
2 | CCOc1ccc(/C(O)=C2\C(=O)CN(C(C)C)C2=O)c(OC)c1 | 69% | –
3 | CC(C)Oc1ccc(/C(O)=C2\C(=O)CN(C(C)C)C2=O)cc1 | 79% | –
4 | COc1ccc(/C(O)=C2\C(=O)C(C)N(C(C)C)C2=O)c(OC)c1 (configuration not stated) | 25% | –
5 | CCOc1ccc(/C(O)=C2\C(=O)C(C)N(C(C)C)C2=O)c(OC)c1 (configuration not stated) | 32% | –
6 | C=CCOc1ccc(/C(O)=C2\C(=O)C(C)N(C(C)C)C2=O)c(OC)c1 (configuration not stated) | 44% | –
7 | COc1cc(OC(C)C)ccc1/C(O)=C1\C(=O)C(C)N(C(C)C)C1=O (configuration not stated) | 9% | –
8 | COc1ccc(/C(O)=C2\C(=O)C(C)N(C(C)C)C2=O)cc1 (configuration not stated) | 4% | –
9 | CCC(C)N1CC(=O)/C(=C(/O)c2ccc(OC)c(OC)c2)C1=O (configuration not stated) | 9% | –
10 | CCC(C)N1CC(=O)/C(=C(/O)c2cc(OC)c(OC)cc2OC)C1=O (configuration not stated) | 18% | –
11 | CCC(C)N1CC(=O)/C(=C(/O)c2cccc(Oc3ccccc3)c2)C1=O (configuration not stated) | 58% | –
12 | CCC(C)N1CC(=O)/C(=C(/O)c2cc(C)cc(C)c2)C1=O (configuration not stated) | 9% | –
13 | CCC(C)N1CC(=O)/C(=C(/O)c2ccc(OC)cc2)C1=O (configuration not stated) | 64% | –
14 | CCCCOc1ccc(/C(O)=C2\C(=O)CN(C(C)CC)C2=O)cc1 (configuration not stated) | 28% | –
15 | CCCCOc1cccc(/C(O)=C2\C(=O)CN(C(C)CC)C2=O)c1 (configuration not stated) | 32% | –
16 | CCCc1ccc(/C(O)=C2\C(=O)CN(C(C)CC)C2=O)cc1 (configuration not stated) | 18% | –
17 | CCOc1ccc(/C(O)=C2\C(=O)CN(C(C)CC)C2=O)cc1 (configuration not stated) | 78% | inhibition at 375 g/ha (Digitaria sanguinalis [2]): 59%; inhibition at 750 g/ha (Digitaria sanguinalis [3]): 96%; inhibition at 93.75 g/ha (Echinochloa crus-galli [4]): 7%; inhibition at 187.5 g/ha (Echinochloa crus-galli [5]): 28%; inhibition at 750 g/ha (Echinochloa crus-galli [6]): 93%; inhibition at 375 g/ha (Echinochloa crus-galli [7]): 82%; inhibition at 187.5 g/ha (Digitaria sanguinalis [8]): 41%; inhibition at 93.75 g/ha (Digitaria sanguinalis [9]): 18%
18 | CCC(C)N1CC(=O)/C(=C(/O)c2ccc(OC(C)C)cc2OC)C1=O (configuration not stated) | 33% | –

Row | Compound | inhibition at 10 µg/mL (Echinochloa crus-galli [1]) | other results
19 | CCOc1ccc(/C(O)=C2\C(=O)CN(C(C)CC)C2=O)c(OC)c1 (configuration not stated) | 68% | –
20 | CCC(C)N1CC(=O)/C(=C(/O)c2ccc(OC(C)C)cc2)C1=O (configuration not stated) | 46% | –
21 | CCOc1ccc(/C([O-])=C2\C(=O)CN(C(C)C)C2=O)cc1.CCOc1ccc(/C([O-])=C2\C(=O)CN(C(C)C)C2=O)cc1.[Zn+2] | – | inhibition (INH) (Digitaria sanguinalis [2]): 100%; inhibition at 750 g/ha (Digitaria sanguinalis [3]; [10]): 100%; inhibition (INH) (Echinochloa crus-galli [4]): 57%; inhibition at 187.5 g/ha (Echinochloa crus-galli [5]; [10]): 96%; inhibition at 750 g/ha (Echinochloa crus-galli [6]; [10]): 100%; inhibition at 375 g/ha (Echinochloa crus-galli [7]; [10]): 100%; inhibition at 187.5 g/ha (Digitaria sanguinalis [8]; [10]): 64%; inhibition at 93.75 g/ha (Digitaria sanguinalis [9]; [10]): 8%
22 | Cc1ccccc1/C(O)=C1\C(=O)CN(Cc2ccccc2)C1=O | 15% | –
23 | Cc1cccc(/C(O)=C2\C(=O)CN(Cc3ccccc3)C2=O)c1 | 12% | –
24 | COc1ccccc1/C(O)=C1\C(=O)CN(Cc2ccccc2)C1=O | 14% | –
25 | Cc1ccc(/C(O)=C2\C(=O)CN(Cc3ccccc3)C2=O)cc1 | 8% | –
26 | O=C1CN(Cc2ccccc2)C(=O)/C1=C(\O)c1ccccc1 | 2% | inhibition at 93.75 g/ha (Echinochloa crus-galli [4]): 0%; inhibition at 187.5 g/ha (Echinochloa crus-galli [5]): 0%; inhibition at 750 g/ha (Echinochloa crus-galli [6]): 0%; inhibition at 375 g/ha (Echinochloa crus-galli [7]): 0%
27 | CC(C)(C)c1ccc(/C(O)=C2\C(=O)CN(C(C)(C)C)C2=O)cc1 | 4% | –
28 | CC(C)c1ccc(/C(O)=C2\C(=O)CN(C(C)(C)C)C2=O)cc1 | 10% | –
29 | COc1ccc(/C(O)=C2\C(=O)CN(C3CC3)C2=O)cc1 | 62% | –
30 | CCCCCc1ccc(/C(O)=C2\C(=O)CN(C3CC3)C2=O)cc1 | 5% | –
31 | CCOc1ccc(/C(O)=C2\C(=O)CN(C3CC3)C2=O)cc1 | 78% | –
32 | O=C1CN(C2CC2)C(=O)/C1=C(\O)c1cccc(Oc2ccccc2)c1 | 58% | –
33 | COc1ccc(/C(O)=C2\C(=O)CN(C3CC3)C2=O)c(OC)c1 | 78% | –
34 | CC(C)N1CC(=O)/C(=C(/O)c2cccc(Oc3ccccc3)c2)C1=O | 57% | –
35 | Cc1cc(C)cc(/C(O)=C2\C(=O)CN(C(C)C)C2=O)c1 | 22% | –
36 | CS(=O)(=O)c1ccc(C(=O)C2C(=O)CCCC2=O)c(Cl)c1 [SULCOTRIONE] | – | inhibition at 375 g/ha (Digitaria sanguinalis [2]): 100%; inhibition at 750 g/ha (Digitaria sanguinalis [3]): 100%; inhibition at 93.75 g/ha (Echinochloa crus-galli [4]): 70%; inhibition at 187.5 g/ha (Echinochloa crus-galli [5]): 93%; inhibition at 750 g/ha (Echinochloa crus-galli [6]): 100%; inhibition at 375 g/ha (Echinochloa crus-galli [7]): 100%; inhibition at 187.5 g/ha (Digitaria sanguinalis [8]): 100%; inhibition at 93.75 g/ha (Digitaria sanguinalis [9]): 100%
